Experimental data as given in patent US20240299385A1 (ReWind Therapeutics NV, priority 2021, published 2024).

Biological target: T1, human GPR17 receptor (Homo sapiens, UniProt Q13304)
T1 construct: host or cells: HEK-293
Test: Calcium mobilization functional assay (Fluo-8, FLIPR TETRA) in HEK-293 hGPR17 (Gα-q assay)
Assay type: cell-based
Conditions: antagonism of MDL29,951 (~EC80) induced Ca2+ signal; cell line (HEK-293 hGPR17 or HEK-293 Suchi5 hGPR17) not given
In short: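 Fluo-8-loaded HEK-293 hGPR17 cells (60 min dye loading, room temperature) were preincubated with compound for twenty minutes, then challenged with agonist MDL29,951 at ~EC80, 500 nM. Intracellular calcium release via Gα-q was recorded as FLIPR fluorescence for a further 2 minutes; compounds tested in duplicate.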

T1 sequence (Q13304 whole entry): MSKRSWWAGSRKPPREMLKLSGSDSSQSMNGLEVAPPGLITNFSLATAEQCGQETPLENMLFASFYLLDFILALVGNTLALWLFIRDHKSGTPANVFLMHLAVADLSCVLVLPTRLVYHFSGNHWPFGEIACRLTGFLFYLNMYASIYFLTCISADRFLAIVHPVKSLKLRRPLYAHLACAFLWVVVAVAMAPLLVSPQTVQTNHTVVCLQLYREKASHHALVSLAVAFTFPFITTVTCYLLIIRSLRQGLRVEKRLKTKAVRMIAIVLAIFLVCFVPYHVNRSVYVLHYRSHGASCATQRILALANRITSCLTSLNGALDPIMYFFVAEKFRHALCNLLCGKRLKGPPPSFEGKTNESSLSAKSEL

| Compound | IC50 [nM] |
| --- | --- |
| N#Cc1cnc(-c2cc(S(=O)(=O)Nc3cc(F)c(OC(F)F)cc3F)c[nH]2)s1 [Cpd 617, 5-(5-cyano-1,3-thiazol-2-yl)-N-[4-(difluoromethoxy)-2,5-difluorophenyl]-1H-pyrrole-3-sulfonamide] | 5000 to 50000 |
| Cn1cnc2c(-c3cc(S(=O)(=O)Nc4ccc(C#N)cc4F)c[nH]3)cccc21 [Cpd 620, N-(4-cyano-2-fluorophenyl)-5-(1-methylbenzimidazol-4-yl)-1H-pyrrole-3-sulfonamide] | 500 to 5000 |
| N#Cc1ccc(NS(=O)(=O)c2c[nH]c(CC3CC3)c2)c(F)c1 [Cpd 622, N-(4-cyano-2-fluorophenyl)-5-(cyclopropylmethyl)-1H-pyrrole-3-sulfonamide] | 500 to 5000 |
| N#Cc1ccc(NS(=O)(=O)c2c[nH]cc2Cc2ccncc2)c(F)c1 [Cpd 624, N-(4-cyano-2-fluorophenyl)-4-(pyridin-4-ylmethyl)-1H-pyrrole-3-sulfonamide] | 500 to 5000 |
| N#Cc1ccc(NS(=O)(=O)c2c[nH]cc2CCc2ccccc2)c(F)c1 [Cpd 625, N-(4-cyano-2-fluorophenyl)-4-(2-phenylethyl)-1H-pyrrole-3-sulfonamide] | 5000 to 50000 |
| O=S(=O)(Nc1ncc(C(F)(F)F)s1)c1c[nH]c(-c2ccccc2)c1 [Cpd 630, 5-phenyl-N-[5-(trifluoromethyl)-1,3-thiazol-2-yl]-1H-pyrrole-3-sulfonamide] | 500 to 5000 |
| N#Cc1cnc(NS(=O)(=O)c2c[nH]c(-c3ccccc3)c2)s1 [Cpd 631, N-(5-cyano-1,3-thiazol-2-yl)-5-phenyl-1H-pyrrole-3-sulfonamide] | 500 to 5000 |
| N#CCOc1cc(F)c(NS(=O)(=O)c2c[nH]c(-c3ccccc3)c2F)cc1F [Cpd 632, N-[4-(cyanomethoxy)-2,5-difluorophenyl]-4-fluoro-5-phenyl-1H-pyrrole-3-sulfonamide] | < 500 |
| COc1csc(-c2cc(S(=O)(=O)Nc3cc(F)c(OC(F)F)cc3F)c[nH]2)n1 [Cpd 633, N-[4-(difluoromethoxy)-2,5-difluorophenyl]-5-(4-methoxy-1,3-thiazol-2-yl)-1H-pyrrole-3-sulfonamide] | < 500 |
| N#Cc1cc(F)c(NS(=O)(=O)c2c[nH]c(-c3ccoc3)c2)cc1F [Cpd 640, N-(4-cyano-2,5-difluorophenyl)-5-(furan-3-yl)-1H-pyrrole-3-sulfonamide] | < 500 |
| N#Cc1ccc(NS(=O)(=O)c2c[nH]c(-c3cncs3)c2)c(F)c1 [Cpd 641, N-(4-cyano-2-fluorophenyl)-5-(1,3-thiazol-5-yl)-1H-pyrrole-3-sulfonamide] | < 500 |
| N#Cc1cc(F)c(NS(=O)(=O)c2c[nH]c(-c3cscn3)c2)cc1F [Cpd 642, N-(4-cyano-2,5-difluorophenyl)-5-(1,3-thiazol-4-yl)-1H-pyrrole-3-sulfonamide] | < 500 |
| [2H]C([2H])(c1cccc(F)c1)c1c[nH]cc1S(=O)(=O)Nc1cc(F)c(C#N)cc1F [Cpd 643, N-(4-cyano-2,5-difluorophenyl)-4-((3-fluorophenyl)methyl-d2)-1H-pyrrole-3-sulfonamide] | < 500 |
| N#Cc1sc(NS(=O)(=O)c2c[nH]c(-c3ccccc3)c2)cc1F [Cpd 644, N-(5-cyano-4-fluorothiophen-2-yl)-5-phenyl-1H-pyrrole-3-sulfonamide] | 5000 to 50000 |
| N#Cc1ccc(F)c(-c2cc(S(=O)(=O)Nc3cc(F)c(C#N)cc3F)c[nH]2)c1 [Cpd 645, N-(4-cyano-2,5-difluorophenyl)-5-(5-cyano-2-fluorophenyl)-1H-pyrrole-3-sulfonamide] | < 500 |
| N#Cc1cc(F)c(NS(=O)(=O)c2c[nH]c(-c3ccsn3)c2)cc1F [Cpd 646, N-(4-cyano-2,5-difluorophenyl)-5-(1,2-thiazol-3-yl)-1H-pyrrole-3-sulfonamide] | < 500 |
| N#Cc1cc(F)c(NS(=O)(=O)c2c[nH]c(-c3cncs3)c2)cc1F [Cpd 647, N-(4-cyano-2,5-difluorophenyl)-5-(1,3-thiazol-5-yl)-1H-pyrrole-3-sulfonamide] | < 500 |
| N#Cc1cc(F)c(NS(=O)(=O)c2c[nH]c(-c3ncc(Cl)s3)c2)cc1F [Cpd 648, 5-(5-chloro-1,3-thiazol-2-yl)-N-(4-cyano-2,5-difluorophenyl)-1H-pyrrole-3-sulfonamide] | < 500 |
| Cc1csc(-c2cc(S(=O)(=O)Nc3cc(F)c(C#N)cc3F)c[nH]2)n1 [Cpd 649, N-(4-cyano-2,5-difluorophenyl)-5-(4-methyl-1,3-thiazol-2-yl)-1H-pyrrole-3-sulfonamide] | < 500 |
| N#Cc1ccc(F)c(-c2cc(S(=O)(=O)Nc3cc(F)c(OC(F)F)cc3F)c[nH]2)c1 [Cpd 650, 5-(5-cyano-2-fluorophenyl)-N-[4-(difluoromethoxy)-2,5-difluorophenyl]-1H-pyrrole-3-sulfonamide] | < 500 |
| N#Cc1cc(F)c(NS(=O)(=O)c2c[nH]c(-c3coc4ccccc34)c2)cc1F [Cpd 651, 5-(1-benzofuran-3-yl)-N-(4-cyano-2,5-difluorophenyl)-1H-pyrrole-3-sulfonamide] | < 500 |
| COc1c(F)cccc1-c1cc(S(=O)(=O)Nc2cc(F)c(C#N)cc2F)c[nH]1 [Cpd 652, N-(4-cyano-2,5-difluorophenyl)-5-(3-fluoro-2-methoxyphenyl)-1H-pyrrole-3-sulfonamide] | < 500 |
| O=S(=O)(Nc1nc(F)c(OCCF)cc1F)c1c[nH]c(-c2cc(Cl)ccc2F)c1 [Cpd 655, 5-(5-chloro-2-fluorophenyl)-N-[3,6-difluoro-5-(2-fluoroethoxy)pyridin-2-yl]-1H-pyrrole-3-sulfonamide] | < 500 |
| N#Cc1cc(F)c(NS(=O)(=O)c2c[nH]c(-c3ccns3)c2)cc1F [Cpd 656, N-(4-cyano-2,5-difluorophenyl)-5-(1,2-thiazol-5-yl)-1H-pyrrole-3-sulfonamide] | 500 to 5000 |

The remaining lines, values ahead:

| IC50 [nM] | Compound |
| --- | --- |
| 500 to 5000 | O=S(=O)(Nc1cc(F)c(C(F)(F)F)cc1F)c1c[nH]c(-c2cnccn2)c1 [Cpd 618, N-[2,5-difluoro-4-(trifluoromethyl)phenyl]-5-pyrazin-2-yl-1H-pyrrole-3-sulfonamide] |
| < 500 | O=S(=O)(Nc1cc(F)c(C(F)(F)F)cc1F)c1c[nH]c(-c2cccnn2)c1 [Cpd 619, N-[2,5-difluoro-4-(trifluoromethyl)phenyl]-5-pyridazin-3-yl-1H-pyrrole-3-sulfonamide] |
| 500 to 5000 | O=S(=O)(Nc1cc(F)c(C(F)(F)F)cc1F)c1c[nH]c(C2CCC(F)(F)C2)c1 (stereo not shown) [Cpd 621, 5-(3,3-difluorocyclopentyl)-N-[2,5-difluoro-4-(trifluoromethyl)phenyl]-1H-pyrrole-3-sulfonamide] |
| < 500 | O=S(=O)(Nc1cc(F)c(C(F)(F)F)cc1F)c1c[nH]c(-c2ccccc2)c1F [Cpd 626, N-[2,5-difluoro-4-(trifluoromethyl)phenyl]-4-fluoro-5-phenyl-1H-pyrrole-3-sulfonamide] |
| 500 to 5000 | O=S(=O)(Nc1cc(F)c(C(F)(F)F)cc1F)c1cc(-c2ccccc2)[nH]c1F [Cpd 627, N-[2,5-difluoro-4-(trifluoromethyl)phenyl]-2-fluoro-5-phenyl-1H-pyrrole-3-sulfonamide] |
| < 500 | O=S(=O)(Nc1cc(F)c(OC(F)F)cc1F)c1c[nH]c(-c2cncs2)c1 [Cpd 628, N-[4-(difluoromethoxy)-2,5-difluorophenyl]-5-(1,3-thiazol-5-yl)-1H-pyrrole-3-sulfonamide] |
| < 500 | O=S(=O)(Nc1cc(F)c(OC(F)F)cc1F)c1c[nH]c(-c2cscn2)c1 [Cpd 629, N-[4-(difluoromethoxy)-2,5-difluorophenyl]-5-(1,3-thiazol-4-yl)-1H-pyrrole-3-sulfonamide] |
| < 500 | Cc1csc(-c2cc(S(=O)(=O)Nc3cc(F)c(OC(F)F)cc3F)c[nH]2)n1 [Cpd 634, N-[4-(difluoromethoxy)-2,5-difluorophenyl]-5-(4-methyl-1,3-thiazol-2-yl)-1H-pyrrole-3-sulfonamide] |
| < 500 | O=S(=O)(Nc1cc(F)c(OC(F)F)cc1F)c1c[nH]c(-c2ccsn2)c1 [Cpd 635, N-[4-(difluoromethoxy)-2,5-difluorophenyl]-5-(1,2-thiazol-3-yl)-1H-pyrrole-3-sulfonamide] |
| < 500 | O=S(=O)(Nc1cc(F)c(OC(F)F)cc1F)c1c[nH]c(-c2ncco2)c1 [Cpd 636, N-[4-(difluoromethoxy)-2,5-difluorophenyl]-5-(1,3-oxazol-2-yl)-1H-pyrrole-3-sulfonamide] |
| 500 to 5000 | O=S(=O)(Nc1cc(F)c(OC(F)F)cc1F)c1c[nH]c(-c2ncc(C(F)(F)F)s2)c1 [Cpd 637, N-[4-(difluoromethoxy)-2,5-difluorophenyl]-5-[5-(trifluoromethyl)-1,3-thiazol-2-yl]-1H-pyrrole-3-sulfonamide] |
| < 500 | O=S(=O)(Nc1cc(F)c(OC(F)F)cc1F)c1c[nH]c(-c2ccns2)c1 [Cpd 638, N-[4-(difluoromethoxy)-2,5-difluorophenyl]-5-(1,2-thiazol-5-yl)-1H-pyrrole-3-sulfonamide] |
| < 500 | O=S(=O)(Nc1cc(F)c(OC(F)F)cc1F)c1c[nH]c(-c2cnsc2)c1 [Cpd 639, N-[4-(difluoromethoxy)-2,5-difluorophenyl]-5-(1,2-thiazol-4-yl)-1H-pyrrole-3-sulfonamide] |
| < 500 | Cc1occc1-c1cc(S(=O)(=O)Nc2cc(F)c(C(F)(F)F)cc2F)c[nH]1 [Cpd 653, N-[2,5-difluoro-4-(trifluoromethyl)phenyl]-5-(2-methylfuran-3-yl)-1H-pyrrole-3-sulfonamide] |
| < 500 | N#Cc1cc(F)c(NS(=O)(=O)c2c[nH]c(-c3cccc(F)c3)c2)cc1F [Cpd 654, N-(4-cyano-2,5-difluorophenyl)-5-(3-fluorophenyl)-1H-pyrrole-3-sulfonamide] |
| 500 to 5000 | N#Cc1cc(F)c(NS(=O)(=O)c2c[nH]c(-c3cnsc3)c2)cc1F [Cpd 657, N-(4-cyano-2,5-difluorophenyl)-5-(1,2-thiazol-4-yl)-1H-pyrrole-3-sulfonamide] |
